{"source": "patent EP1232754A2", "about": "“Use of cationic helix peptides for treatment of sepsis and for detection and removal of endotoxins” (Commonwealth Biotechnologies, Inc., priority 2001, dated 2002)", "key": {"[1]": {"system": "E. coli (strain JM 109)", "assay": "Neutralization of endotoxin presented by intact E. coli, endotoxin chromogenic assay", "type": "biochemical, Escherichia coli", "conditions": "3e06 or 3e07 E. coli per mL; increasing peptide concentrations; within 10 min at 37°C (Figure 5)"}, "[2]": {"assay": "Neutralization of endotoxin added to plasma or buffer, kinetic chromogenic Limulus Amebocyte Lysate endotoxin assay", "type": "biochemical", "description": "The presence of endotoxin may routinely be measured using, for example, a kinetic chromogenic method. The assay involves a complete set of enzyme reactions which are described in detail in the following publications, each of which is hereby incorporated by reference. Endosafe Limulus Amebocyte Lysate Endochrome-K™ package insert. (Endosafe, Charleston, SC) Pearson III, F., Pyrogens/Endotoxins, LAL Testing and Depyrogenation, 1985. Watson, S., Levin, J., and Novitsky, T., Progress in Clinical and Biological Research, Endotoxins and their detection with the Limulus Amebocyte Lysate Test, 93.\nIn the course of the endotoxin assay, a calibration curve is prepared which is a plot of logarithm of the time of the kinetic endpoint of a chromogenic reaction versus the logarithm of known concentrations of endotoxin.\nThus, if endotoxin is added to aqueous buffer solutions or to plasma the amount of endotoxin present can be assayed by reference to the calibration curve. Similarly, if plasma, plasma fractions, patient samples or any test solution contains an endogenous level of endotoxin, the level can also be determined by reference to the calibration curve.\nEndotoxin was purposely added to plasma to a final concentration of 10 ng/mL and increasing concentrations of the compounds Arg Helix #2 (a monomeric cationic helix peptide), Bis Arg Helix #2 (which contains 2 copies of Arg Helix #2), Tris Arg Helix #3 (which contains 3 copies of Arg Helix #3), Tetra Arg Helix #3 (4 copies of Arg Helix #3) or Tris Arg Helix #3 (constrained) (3 copies of Arg Helix #3 constrained by design to present a \"binding groove\" within the molecule) were added to these same samples (Table 1)."}, "[3]": {"assay": "Titration circular dichroism spectroscopy of endotoxin binding", "conditions": "CD titration", "method": "Circular dichroism (CD) spectroscopy can be used to determine the fractional percent of secondary structural elements present in a peptide preparation. Titration CD spectroscopy can be used to assess the effect of binding a ligand on the reorganization of peptide structure (You, Scarsdale, and Harris 1991; Sobel, Soler, et al 1992; Soler, Sobel and Harris 1992; Tyler-Cross, Sobel et al 1993; Tyler-Cross, Sobel, Marques et al, 1994). Thus, incremental amounts of endotoxin were added to a solution of TR3 CONST and the effect of binding endotoxin by the peptide was assessed by CD spectroscopy.\nBy CD, Tris Arg Helix #3 (constrained) is 18% helix in solution (20°C) but complexation with endotoxin increases the helix character of the peptide to nearly 50% (Figure 3). Note that binding of endotoxin is dose dependent and saturable."}, "[4]": {"system": "E. coli (strain JM 109)", "assay": "Neutralization of endotoxin presented by intact E. coli, endotoxin chromogenic assay", "type": "biochemical, Escherichia coli", "conditions": "TR3 CONST 200 µg/mL; for % neutralization / Endotoxin Equivalents: 10 min, 37°C", "method": "LPS is presented on the surface of gram-negative bacteria, such as Escherichia coli (E. coli). It was thus of interest to determine whether TR3 CONST would bind LPS present on whole bacterial cells. The assay method used was the endotoxin chromogenic assay as described above.\nThus, increasing amounts of E. coli (strain JM 109) were incubated (10 min; 37°C) in the presence or absence of 200 µg/mL TR3 CONST in 10 mM phosphate-150 mM NaCI-3 mM KCI buffer, pH 7.4. An aliquot of the incubation mixture was then assayed for residual endotoxin activity as previously described.\nEquivalent endotoxin concentrations are deduced by reference to the endotoxin calibration curve."}}, "note": "Bridges are numbered along the chain shown (N, C = ends). Roman numbers before positions name the chains, in order. [ ]: non-standard residue; d: D form. Dap = NC[C@H](N)C(=O)O"}
{"substance": "I: Ac-AEARARRAAARAARRAKKP[Dap]E-NH2 / II: Ac-AEARARRAAARAARRA / III: Ac-AEARARRAAARAARRA (amide I:18-II:C, I:20-III:C) [Tris Arg Helix #3 (constrained)]", "values": [{"measurement": "neutralization of endotoxin as presented on the surface of E. coli", "setting": "[1]", "value": "dose dependent neutralization"}, {"measurement": "endotoxin quantitatively bound", "setting": "[2]; 1 mg/ml peptide, water or plasma solution", "value": "> 1", "unit": "µg/mL"}, {"measurement": "Percent Binding of", "setting": "[2]; Endotoxin 5, peptide 2.5 (ng/mL and mg/mL)", "value": 100, "unit": "%"}, {"measurement": "Percent Binding of", "setting": "[2]; Endotoxin 50, peptide 2.5 (ng/mL and mg/mL)", "value": 100, "unit": "%"}, {"measurement": "Percent Binding of", "setting": "[2]; Endotoxin 500, peptide 1.0 (ng/mL and mg/mL)", "value": "~100", "unit": "%"}, {"measurement": "neutralization of endotoxin added to aqueous samples", "setting": "[2]; aqueous samples, compared with plasma", "value": "same results were obtained"}, {"measurement": "Kd", "setting": "[3]", "value": 870, "unit": "nM"}, {"measurement": "N, stoichiometry of binding (endotoxin:peptide)", "setting": "[3]", "value": 0.91}, {"measurement": "% neutralization", "setting": "[4]; E. coli 3e03 organisms/mL", "value": 100, "unit": "%"}, {"measurement": "Endotoxin Equivalents", "setting": "[4]; E. coli 3e03 organisms/mL", "value": 0.00, "unit": "ng/mL"}, {"measurement": "% neutralization", "setting": "[4]; E. coli 3e04 organisms/mL", "value": 100, "unit": "%"}, {"measurement": "Endotoxin Equivalents", "setting": "[4]; E. coli 3e04 organisms/mL", "value": 0.00, "unit": "ng/mL"}, {"measurement": "% neutralization", "setting": "[4]; E. coli 3e05 organisms/mL", "value": 100, "unit": "%"}, {"measurement": "Endotoxin Equivalents", "setting": "[4]; E. coli 3e05 organisms/mL", "value": 0.00, "unit": "ng/mL"}, {"measurement": "% neutralization", "setting": "[4]; E. coli 3e06 organisms/mL", "value": 87.9, "unit": "%"}, {"measurement": "Endotoxin Equivalents", "setting": "[4]; E. coli 3e06 organisms/mL", "value": 6.97, "unit": "ng/mL"}, {"measurement": "% neutralization", "setting": "[4]; E. coli 3e07 organisms/mL", "value": 48.8, "unit": "%"}, {"measurement": "Endotoxin Equivalents", "setting": "[4]; E. coli 3e07 organisms/mL", "value": 94.3, "unit": "ng/mL"}, {"measurement": "Endotoxin Equivalents", "setting": "[4]; E. coli 3e08 organisms/mL", "value": 440.0, "unit": "ng/mL"}, {"measurement": "neutralization of the endotoxin activity", "setting": "[4]; E. coli up to 3e06 organisms/mL", "value": "complete neutralization"}]}
